Where a name gives a salt, the structure may show the parent alone. Read-outs that look alike come from different tables or passages of the source. Where a SMILES comes first, the peptide text is derived from it. The star is where a group is joined. X1 = CCC1=C(C)c2cc3[nH]c(cc4nc(c(C)c5cc(C)c(cc1n2)[nH]5)[C@@H](CCC(=O)*)[C@@H]4C)c(C)c3CC
Columns and labels:
[1] = test system: Human ovarian cancer cell line SKOV3; test: Inherent cytotoxicity (dark toxicity) in SKOV3 cells (AlamarBlue viability); format: cell-based
Description: Photosensitizers (e.g. chlorin analogue, chlorin e4 disodium (provided by Advanced Molecular Technologies, Scoresby) or Talaporfin sodium (purchased from Focus Bioscience cat #HY-16477-5MG)) were resuspended in 100% dimethylsulfoxide (DMSO) at a concentration of 5.5 mM. Samples were stored at 4° C. protected from light.
All data are shown as mean±SD (where appropriate).
Untreated cells were used as a control. […] All measurements were made in quadruplicate.

[2] = test system: Human ovarian cancer cell line SKOV3; test: Phototoxicity in SKOV3 cells after 660 nm laser or LED activation (AlamarBlue viability); format: cell-based
Description: Samples were stored at 4° C. protected from light. […] All data are shown as mean±SD (where appropriate). […] Laser and LED exposure induce an equivalent response in relation to phototoxicity. Following activation, cells were cultured for a further 24 hours. Media was then replaced with fresh media containing AlamarBlue, and % viable cells remaining assessed as above. Controls included cells treated with reduced chlorin analogues but not activated by laser light; cells without reduced chlorin analogue treatment but with laser light; and untreated controls. All measurements were made in quadruplicate.

[3] = SKOV3 cells, 24 hours incubation, no light activation
[4] = SKOV3 cells, vs phyllochlorin free acid / phyllochlorin sodium salt
[5] = Homo sapiens, SK-OV-3, light or radiation study, SKOV3 cells, 24 hours uptake, 660 nm laser, 50 mW/cm^2 for 5 mins (15 J/cm^2), viability 24 hours after activation, read-out: Phototoxicity μM (IC90)
[6] = Homo sapiens, SK-OV-3, light or radiation study, SKOV3 cancer cells, laser or LED, read-out: phototoxicity IC90

| SMILES | IC90 [2, 5] [µM] | Dark toxicity μM (IC10) ([1]; human, 24 h) [µM] | also measured |
| --- | --- | --- | --- |
| C=Cc1c(C)c2cc3nc(c(C)c4[nH]c(cc5nc(cc1[nH]2)C(C)=C5CC)c(C)c4C(=O)O)[C@@H](CCC(=O)O)[C@@H]3C [Chlorin e4 disodium, chlorin e4 disodium, reference compound] |  |  | Dark toxicity μM (IC10) [1, 3]: 40.23 µM; IC90 ([2]; SKOV3 cells, 24 hours uptake, 660 nm laser, 50 mW/cm^2 for 5 mins (15 J/cm^2), viability 24 hours after activation, read-out: Phototoxicity μM (IC90)): 21.3 µM |
| CCC1=C(C)c2cc3[nH]c(cc4nc(c(C)c5cc(C)c(cc1n2)[nH]5)[C@@H](CCC(=O)[O-])[C@@H]4C)c(C)c3CC.[Na+] [Compound 2, Reduced Phyllochlorin Sodium Salt] | 0.071 |  | Dark toxicity μM (IC10) [1, 3]: 47.840 µM; Dark toxicity compared to non-meso analogue [1, 4]: largely unaffected; increase in phototoxicity of meso-compound compared to non-meso analogue [2, 4]: 4.9 fold |
| CCC1=C(C)c2cc3[nH]c(cc4nc(c(C)c5cc(C)c(cc1n2)[nH]5)[C@@H](CCC(=O)N[C@H]1C(O)O[C@H](CO)[C@@H](O)[C@@H]1O)[C@@H]4C)c(C)c3CC (some centres unmarked) [Compound 3, Reduced Phyllochlorin 2-deoxyglucosamine-propylamide] | 0.043 | 13.330 |  |
| CCC1=C(C)c2cc3[nH]c(cc4nc(c(C)c5cc(C)c(cc1n2)[nH]5)[C@@H](CCC(=O)N(C)CCCS[C@@H]1O[C@H](CO)[C@@H](O)[C@H](O)[C@H]1O)[C@@H]4C)c(C)c3CC [Compound 4, Reduced Phyllochlorin β-D-1-thioglucose-N-methylpropylamide] | 0.068 | 2.780 |  |
| CCC1=C(C)c2cc3[nH]c(cc4nc(c(C)c5cc(C)c(cc1n2)[nH]5)[C@@H](CCC(=O)N(C)CCOCCO[C@@H]1O[C@H](CO)[C@@H](O)[C@H](O)[C@H]1O)[C@@H]4C)c(C)c3CC [Compound 5, Reduced Phyllochlorin β-D-1-glucose-N-methyl-2-ethoxy-N-ethanamine] | 0.102 | 18.440 |  |
| CCC1=C(C)c2cc3[nH]c(cc4nc(c(C)c5cc(C)c(cc1n2)[nH]5)[C@@H](CCC(=O)N(C)CCCO[C@@H]1O[C@H](CO)[C@@H](O)[C@H](O)[C@H]1O)[C@@H]4C)c(C)c3CC [Compound 9, Reduced Phyllochlorin β-D-glucosyl-N-methylpropylamide] | 0.098 | 12.780 |  |
| CCC1=C(C)c2cc3[nH]c(cc4nc(c(C)c5cc(C)c(cc1n2)[nH]5)[C@@H](CCC(=O)N(C)C[C@H](O)[C@@H](O)[C@H](O)[C@H](O)CO)[C@@H]4C)c(C)c3CC [Compound 10, Reduced Phyllochlorin N-meglumine-propylamide] |  | 4.905 |  |
| CCC1=C(C)c2cc3[nH]c(cc4nc(c(C)c5cc(C)c(cc1n2)[nH]5)[C@@H](CCC(=O)N(C)CCCOCCC[P+](c1ccccc1)(c1ccccc1)c1ccccc1)[C@@H]4C)c(C)c3CC [Compound 11] | 0.003 | 4.347 | IC90 [2, 6]: ≤ 0.01 µM; orders of magnitude greater phototoxicity compared to Talaporfin sodium ([2]; SKOV3 cells, IC90 compared): 4 orders of magnitude |
| CCC1=C(C)c2cc3[nH]c(cc4nc(c(C)c5cc(C)c(cc1n2)[nH]5)[C@@H](CCC(=O)N(C)CCOCCOCCO)[C@@H]4C)c(C)c3CC [Compound 12, Reduced Phyllochlorin N-(2-(2-(2-hydroxyethoxy)ethoxy)ethyl)-N-methyl-3-amide] | 0.078 | 5.975 |  |
| CCC1=C(C)c2cc3[nH]c(cc4nc(c(C)c5cc(C)c(cc1n2)[nH]5)[C@@H](CCC(=O)N(C)CCOCCOCC[n+]1ccccc1)[C@@H]4C)c(C)c3CC [Compound 13, Reduced Phyllochlorin N-(2-(2-(2-pyridiniumethoxy)ethoxy)ethyl)-N-methyl-3-amide chloride] | 0.006 | 1.260 | IC90 [2, 6]: ≤ 0.01 µM |
| CCC1=C(C)c2cc3[nH]c(cc4nc(c(C)c5cc(C)c(cc1n2)[nH]5)[C@@H](CCC(=O)N(C)CCOCCOCCOCCOCCOCCOC)[C@@H]4C)c(C)c3CC [Compound 14, Reduced Phyllochlorin N-methyl-N-3,6,9,12,15,18-hexaoxanonadecyl propylamide] | 0.161 | 3.940 |  |
| CCC1=C(C)c2cc3[nH]c(cc4nc(c(C)c5cc(C)c(cc1n2)[nH]5)[C@@H](CCC(=O)N[C@@H]1C(O)O[C@H](CO)[C@@H](O)[C@@H]1O)[C@@H]4C)c(C)c3CC (stereo partly drawn) [Compound 15, Reduced Phyllochlorin 2-deoxy-D-mannosamine-propylamide] | 0.07 | 5.400 |  |
| CCC1=C(C)c2cc3[nH]c(cc4nc(c(C)c5cc(C)c(cc1n2)[nH]5)[C@@H](CCC(=O)N(C)CCOCCOCC[P+](c1ccccc1)(c1ccccc1)c1ccccc1)[C@@H]4C)c(C)c3CC [Compound 16, Reduced Phyllochlorin N-(2-(2-(2-triphenylphosphoniumethoxy)ethoxy)ethyl)-N-methyl-3-amide chloride] | 0.011 | 3.205 |  |
| CCC1=C(C)c2cc3[nH]c(cc4nc(c(C)c5cc(C)c(cc1n2)[nH]5)[C@@H](CCC(=O)N(C)CCC[S+]([O-])[C@@H]1O[C@H](CO)[C@@H](O)[C@H](O)[C@H]1O)[C@@H]4C)c(C)c3CC (stereo partly drawn) [Compound 17, Reduced Phyllochlorin β-D-1-thioglucose-N-methylpropylamide sulfoxide] | 0.174 | 4.752 |  |
| CCC1=C(C)c2cc3[nH]c(cc4nc(c(C)c5cc(C)c(cc1n2)[nH]5)[C@@H](CCCN)[C@@H]4C)c(C)c3CC [Compound 18, Reduced Phyllochlorin 3-aminopropyl] | 0.01 | 3.946 | IC90 [2, 6]: ≤ 0.01 µM |
| CCC1=C(C)c2cc3[nH]c(cc4nc(c(C)c5cc(C)c(cc1n2)[nH]5)[C@@H](CCC(=O)N(C)CCO)[C@@H]4C)c(C)c3CC [Compound 19, Reduced Phyllochlorin N-2-hydroxyethyl-N-methyl propylamide] | 0.061 | 15.940 |  |
| CCC1=C(C)c2cc3[nH]c(cc4nc(c(C)c5cc(C)c(cc1n2)[nH]5)[C@@H](CCCO)[C@@H]4C)c(C)c3CC [Compound 20, Reduced Phyllochlorin 3-hydroxypropyl] | 0.063 | 5.825 |  |
| CCC1=C(C)c2cc3[nH]c(cc4nc(c(C)c5cc(C)c(cc1n2)[nH]5)[C@@H](CCC(=O)N(C)CCCCCCCCCC[P+](c1ccccc1)(c1ccccc1)c1ccccc1)[C@@H]4C)c(C)c3CC [Compound 21, Reduced Phyllochlorin ((methylamino)-10-decyl)triphenylphosphonium Chloride Propylamide] | 0.022 | 1.465 |  |
| CCC1=C(C)c2cc3[nH]c(cc4nc(c(C)c5cc(C)c(cc1n2)[nH]5)[C@@H](CCC(=O)N(C)CCCO)[C@@H]4C)c(C)c3CC [Compound 22, Reduced Phyllochlorin N-3-hydroxypropyl-N-methyl Propylamide] | 0.042 | 4.348 |  |
| CCC1=C(C)c2cc3[nH]c(cc4nc(c(C)c5cc(C)c(cc1n2)[nH]5)[C@@H](CCC(=O)N(C)CCCCCO)[C@@H]4C)c(C)c3CC [Compound 23, Reduced Phyllochlorin N-5-hydroxypentyl-N-methyl Propylamide] | 0.064 | 4.540 |  |
| CCC1=C(C)c2cc3[nH]c(cc4nc(c(C)c5cc(C)c(cc1n2)[nH]5)[C@@H](CCC(=O)N[C@H]1C(O)O[C@H](CO)[C@H](O)[C@@H]1O)[C@@H]4C)c(C)c3CC (stereo partly drawn) [Compound 24, Reduced Phyllochlorin 2-deoxy-D-galactosamine-propylamide] | 0.049 | 7.011 |  |
| CCC1=C(C)c2cc3[nH]c(cc4nc(c(C)c5cc(C)c(cc1n2)[nH]5)[C@@H](CCC(=O)N[C@@H](CCCCN)C(=O)N[C@@H](CCCCN)C(=O)N[C@@H](CCCCN)C(=O)N[C@@H](CCCCN)C(=O)N[C@@H](CCCCN)C(=O)N(C)C)[C@@H]4C)c(C)c3CC [Compound 26, Reduced Phyllochlorin lysyl-lysyl-lysyl-lysyl-lysyl Dimethylamide Propylamide Pentahydrochloride] (X1-KKKKK-NMe2) | 0.494 |  | Dark toxicity μM (IC10) [1, 3]: 14.670 µM |
| C=Cc1c(C)c2cc3nc(c(CC(=O)N[C@@H](CC(=O)O)C(=O)O)c4[nH]c(cc5nc(cc1[nH]2)C(C)=C5CC)c(C)c4C(=O)O)[C@@H](CCC(=O)O)[C@@H]3C [Talaporfin sodium, reference compound] |  | 11.10 |  |
